Test results reported in the NIST ThermoML archive (doi:10.1021/acs.jced.5b00270).
Numbers after ± are expanded uncertainties.

Details: Liquid, Capillary tube (Ostwald / Ubbelohde) method

C1CCCCC1 [cyclohexane]
Details | viscosity [mPa·s]
303.1 K, 2930 kPa | 0.852 ± 0.029
305.1 K, 960 kPa | 0.801 ± 0.026
305.2 K, 140 kPa | 0.796 ± 0.027
305.2 K, 1960 kPa | 0.819 ± 0.027
305.2 K, 3940 kPa | 0.839 ± 0.028
313.8 K, 2920 kPa | 0.721 ± 0.025
323.7 K, 150 kPa | 0.601 ± 0.02
323.7 K, 1990 kPa | 0.614 ± 0.02
323.7 K, 4000 kPa | 0.631 ± 0.021
324 K, 1020 kPa | 0.616 ± 0.021
348.9 K, 140 kPa | 0.432 ± 0.015
348.9 K, 990 kPa | 0.44 ± 0.015
348.9 K, 2080 kPa | 0.445 ± 0.014
348.9 K, 3030 kPa | 0.451 ± 0.015
348.9 K, 3930 kPa | 0.449 ± 0.015
373.7 K, 970 kPa | 0.331 ± 0.011
373.7 K, 2020 kPa | 0.336 ± 0.011
373.7 K, 2930 kPa | 0.34 ± 0.011
373.7 K, 3960 kPa | 0.346 ± 0.011
398.1 K, 2000 kPa | 0.262 ± 0.0085
398.1 K, 4010 kPa | 0.27 ± 0.0088
398.2 K, 960 kPa | 0.258 ± 0.0084
398.2 K, 2940 kPa | 0.266 ± 0.0087
422.4 K, 960 kPa | 0.204 ± 0.0066
422.5 K, 1970 kPa | 0.209 ± 0.0068
422.5 K, 2960 kPa | 0.214 ± 0.007
422.5 K, 3960 kPa | 0.216 ± 0.007
447.5 K, 1010 kPa | 0.165 ± 0.0054
447.6 K, 2040 kPa | 0.165 ± 0.0055
447.7 K, 3010 kPa | 0.17 ± 0.0056
447.7 K, 4000 kPa | 0.174 ± 0.0057
473.3 K, 3000 kPa | 0.138 ± 0.0046
473.4 K, 1930 kPa | 0.131 ± 0.0044
473.4 K, 3930 kPa | 0.139 ± 0.0046
497.9 K, 3050 kPa | 0.106 ± 0.0036
498.1 K, 3980 kPa | 0.11 ± 0.0037
498.2 K, 3020 kPa | 0.106 ± 0.0036
498.3 K, 4020 kPa | 0.11 ± 0.0037
523 K, 3050 kPa | 0.0791 ± 0.0028
523 K, 3970 kPa | 0.0856 ± 0.003

CCCCCCCCCC [decane]
Details | viscosity [mPa·s]
303.1 K, 3970 kPa | 0.828 ± 0.028
303.2 K, 960 kPa | 0.8 ± 0.026
303.2 K, 3010 kPa | 0.814 ± 0.027
303.3 K, 150 kPa | 0.788 ± 0.026
303.3 K, 2000 kPa | 0.808 ± 0.027
323.7 K, 1120 kPa | 0.617 ± 0.02
323.7 K, 1990 kPa | 0.628 ± 0.021
323.7 K, 3010 kPa | 0.625 ± 0.02
323.8 K, 140 kPa | 0.606 ± 0.02
323.8 K, 3960 kPa | 0.631 ± 0.021
348.9 K, 140 kPa | 0.459 ± 0.015
348.9 K, 1050 kPa | 0.465 ± 0.015
348.9 K, 2090 kPa | 0.469 ± 0.015
348.9 K, 2930 kPa | 0.475 ± 0.015
348.9 K, 3950 kPa | 0.481 ± 0.016
373.7 K, 130 kPa | 0.365 ± 0.012
373.7 K, 960 kPa | 0.368 ± 0.012
373.7 K, 2040 kPa | 0.373 ± 0.012
373.7 K, 2890 kPa | 0.376 ± 0.012
373.7 K, 3960 kPa | 0.381 ± 0.013
398.1 K, 3940 kPa | 0.312 ± 0.01
398.2 K, 140 kPa | 0.295 ± 0.0097
398.2 K, 990 kPa | 0.299 ± 0.0097
398.2 K, 2030 kPa | 0.304 ± 0.0098
398.2 K, 2910 kPa | 0.309 ± 0.01
423.4 K, 2960 kPa | 0.254 ± 0.0083
423.4 K, 3940 kPa | 0.258 ± 0.0084
423.5 K, 950 kPa | 0.247 ± 0.008
423.5 K, 1060 kPa | 0.246 ± 0.008
423.5 K, 2110 kPa | 0.251 ± 0.0081
447.7 K, 1060 kPa | 0.206 ± 0.0067
447.7 K, 1990 kPa | 0.209 ± 0.0068
447.7 K, 2960 kPa | 0.212 ± 0.0069
447.7 K, 3990 kPa | 0.216 ± 0.007
473.4 K, 2150 kPa | 0.174 ± 0.0057
473.4 K, 2920 kPa | 0.177 ± 0.0058
473.4 K, 3990 kPa | 0.18 ± 0.0059
498.2 K, 3890 kPa | 0.152 ± 0.005
498.3 K, 2090 kPa | 0.146 ± 0.0048
498.3 K, 3060 kPa | 0.15 ± 0.0049
523 K, 3970 kPa | 0.129 ± 0.0043
523.1 K, 1060 kPa | 0.118 ± 0.004
523.1 K, 1940 kPa | 0.122 ± 0.0041
523.1 K, 3000 kPa | 0.126 ± 0.0042
547.9 K, 1070 kPa | 0.0957 ± 0.0033
547.9 K, 1980 kPa | 0.1 ± 0.0034
547.9 K, 2940 kPa | 0.105 ± 0.0035
547.9 K, 4000 kPa | 0.108 ± 0.0036
573.6 K, 1930 kPa | 0.0796 ± 0.0028
573.7 K, 2970 kPa | 0.0855 ± 0.003
573.8 K, 4030 kPa | 0.091 ± 0.0031
598.4 K, 4020 kPa | 0.0745 ± 0.0026
598.5 K, 2090 kPa | 0.0619 ± 0.0023
598.5 K, 2980 kPa | 0.0696 ± 0.0025
